The record followed here is patent US10040838B2, “CRHR2 peptide agonists and uses thereof” (JANSSEN PHARMACEUTICA NV, priority 2008, dated 2018).

The target in this assay is T1, human CRHR2 (Homo sapiens, UniProt Q13324).
T1 construct: expressed in transfected cells
T1 sequence (Q13324 1-411): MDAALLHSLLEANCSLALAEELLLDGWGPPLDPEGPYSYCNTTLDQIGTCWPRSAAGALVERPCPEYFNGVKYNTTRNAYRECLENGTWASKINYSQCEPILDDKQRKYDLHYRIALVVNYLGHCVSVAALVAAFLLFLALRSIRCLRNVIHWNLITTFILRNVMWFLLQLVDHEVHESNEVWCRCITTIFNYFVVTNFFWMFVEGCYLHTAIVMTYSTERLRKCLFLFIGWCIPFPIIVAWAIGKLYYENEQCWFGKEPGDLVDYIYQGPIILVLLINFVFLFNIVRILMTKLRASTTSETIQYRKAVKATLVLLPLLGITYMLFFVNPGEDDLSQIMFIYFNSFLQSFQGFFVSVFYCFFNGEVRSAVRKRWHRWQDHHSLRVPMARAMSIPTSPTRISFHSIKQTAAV
Kind of assay: cAMP assay in h-CRHR2 transfected SK-N-MC cells. The format is cell-based. The following applies: Table 13; h-SCP control pA50 minus test compound pA50 within same assay batch. How it is done: The concentration required for 50% maximum effect (A50) was 0.4 nM.
Human CRHR1 (accession number X72304) or CRHR2 (accession number U34587) were cloned into pcDNA3.1/Zeo expression vector and stably transfected into SK-N-MC cells by electroporation. Cells were maintained in MEM w/Earl's Salt with 10% FBS, 50 I.U. penicillin, 50 μg/ml streptomycin, 2 mM L-glutamine, 1 mM sodium pyruvate and 0.1 mM nonessential amino acids, 600 μg/ml G418. Cells were grown at 37° C. in 5% CO2.
Cells were plated in 96-well tissue culture dishes (Biocoat from BD Biosciences) overnight at 50,000 cell/well. Cells were washed with PBS then resuspended in DMEM F-12 without phenol red, containing 10 μM isobutylmethylxanthine (IBMX). Cells were incubated with the peptides at concentrations ranging from 1 pM to 10 μM for 60 min at 37° Celsius. […] Forskolin (10 μM), a direct stimulant of adenylate cyclase, was used as positive control. The assays were stopped by the addition of 0.5 M HCl and mixing by orbital rotation for 2 h at 4° Celsius.
To assess the activity of the inventive peptide at the CRHR2, an intracellular cAMP measurement test using a Flash plate radioactive assay (Catalog No. Cus56088; Perkin Elmer, MA, U.S.A.) was employed.
Transfected SK-N-MC cells were plated in 96-well Biocoat tissue culture dishes (BD Biosciences, San Jose, Calif., U.S.A) overnight at 50,000 cell/well. Cells were first washed with PBS and then suspended with DMEM/F-12 without phenol red, containing […]. Suspended cells were transferred into a 96-well flash plate coated with scintillant fluid. Cells were incubated with peptides ranging from […], for 60 min, at 37° Celsius. Forskolin at 10 μM was used as positive control. After ligand stimulation, cells were lysed by the addition of 0.5M HCl and mixed by orbital rotation for 2 h at 4° Celsius in order to release intracellular cAMP into the media.
Media containing released intracellular cAMP was transferred to a 96-well flash plate coated with scintillant fluid containing an anti-cAMP antibody. In this assay, intracellular cAMP competes with ^125I-labeled cAMP binding to the antibody. To generate a standard curve, cAMP ranging from 2.5 to 250 pmoles/ml was included in the experiment. [^125I]-cAMP was measured on a TopCount scintillation counter (Perkin Elmer, MA, U.S.A).
Individual agonist concentration-response curve data were fitted to the Hill equation, see formula below, using GraphPad Prism (Graphpad Software, La Jolla, Calif., U.S.A.), to provide estimates of agonist concentration needed to generate one-half maximal response (A50), and the maximal asymptote (α) and Hill slope (nH) parameters. In this equation, [A] is the agonist concentration and E is the measured effect:
For display purposes the mean fitted parameter estimates were used to generate a single E/[A] curve shown superimposed on the mean experimental data. Potency estimates for agonists, pA50, are expressed as the negative logarithm of the midpoint of each curve and listed with their standard error of measurement (SEM). Logarithm base 10 of the agonist dose ratio (Log DR) values were calculated by subtraction of the test compound pA50 value from the corresponding h-SCP (SEQ ID NO:1) control pA50 value within the same assay batch. The SEM values of the Log DR values are given by the square root of the sum of the squared SEM values of the h-SCP (SEQ ID NO:1) control and test compound pA50 values.
Human and rat peptides (see Table 10) were used on the stimulation of h-CRHR1 or h-CRHR2 transfected SK-N-MC cells in the cAMP flash plate assay. Peptides were incubated for 1 hr at 37° Celsius. Curves were calculated using non-linear regression sigmoidal concentration-response analysis calculation in GraphPad Prism. The so obtained pA50 values are shown in Table 11 in addition to literature values. […]
For orientation: cAMP levels reflect the balance of adenylyl cyclase and phosphodiesterase activity.

Molecules are shown by their SMILES. Residues, ends and D or L forms follow the SMILES beside them. *: point of attachment. Succinimide(1-Et,3-yl) = CCN1C(=O)CC(*)C1=O

Turning to `CC[C@H](C)[C@H](NC(=O)[C@H](CCC(N)=O)NC(=O)[C@H](C)NC(=O)[C@H](CCSC)NC(=O)[C@H](CC(C)C)NC(=O)[C@H](Cc1c[nH]cn1)NC(=O)[C@H](C)NC(=O)[C@H](CC(N)=O)NC(=O)[C@H](C)NC(=O)[C@H](C)NC(=O)[C@H](C)NC(=O)[C@H](CCC(N)=O)NC(=O)[C@H](C)NC(=O)[C@H](CCCNC(=N)N)NC(=O)[C@H](CC(C)C)NC(=O)[C@H](CC(N)=O)NC(=O)[C@H](CSC1CC(=O)N(CC)C1=O)NC(=O)[C@H](C)NC(=O)[C@H](CCCCN)NC(=O)[C@H](C)NC(=O)[C@@H](NC(=O)[C@H](CC(N)=O)NC(=O)[C@H](Cc1ccccc1)NC(=O)[C@H](CC(C)C)NC(=O)[C@H](CC(C)C)NC(=O)[C@H](CC(N)=O)NC(=O)[C@H](CCSC)NC(=O)[C@@H](NC(=O)[C@H](CC(N)=O)NC(=O)[C@@H](NC(=O)[C@@H]1CCCN1C(=O)[C@@H](NC(=O)[C@H](CC(=O)O)NC(=O)[C@H](CC(C)C)NC(=O)[C@H](CO)NC(=O)[C@H](CC(C)C)NC(=O)[C@@H](NC(=O)[C@H](Cc1ccccc1)NC(=O)[C@H](CCCCN)NC(=O)[C@@H](N)[C@@H](C)O)[C@@H](C)O)C(C)C)[C@@H](C)O)[C@@H](C)CC)[C@@H](C)CC)C(N)=O` (stereo partly shown) [SEQ ID NO: 50, TKFTLSLDVPTNIMNLLFNIAKAC(-NES)N LRAQA AANAH LMAQI-NH2] (H-TKFTLSLDVPTNIMNLLFNIAKAC(Succinimide(1-Et,3-yl))NLRAQAAANAHLMAQI-NH2; N-terminus assumed), the “Log DR” value is given as −0.01.
Under `CC[C@H](C)[C@H](NC(=O)[C@H](CCC(N)=O)NC(=O)[C@H](C)NC(=O)[C@H](CCSC)NC(=O)[C@H](CC(C)C)NC(=O)[C@H](Cc1c[nH]cn1)NC(=O)[C@H](C)NC(=O)[C@H](CC(N)=O)NC(=O)[C@H](C)NC(=O)[C@H](C)NC(=O)[C@H](C)NC(=O)[C@H](CCC(N)=O)NC(=O)[C@H](C)NC(=O)[C@H](CCCNC(=N)N)NC(=O)[C@H](CC(C)C)NC(=O)[C@H](CC(N)=O)NC(=O)[C@H](CCCCN)NC(=O)[C@H](C)NC(=O)[C@H](CCCCN)NC(=O)[C@H](C)NC(=O)[C@H](CSC1CC(=O)N(CC)C1=O)NC(=O)[C@H](CC(N)=O)NC(=O)[C@H](Cc1ccccc1)NC(=O)[C@H](CC(C)C)NC(=O)[C@H](CC(C)C)NC(=O)[C@H](CC(N)=O)NC(=O)[C@H](CCSC)NC(=O)[C@@H](NC(=O)[C@H](CC(N)=O)NC(=O)[C@@H](NC(=O)[C@@H]1CCCN1C(=O)[C@@H](NC(=O)[C@H](CC(=O)O)NC(=O)[C@H](CC(C)C)NC(=O)[C@H](CO)NC(=O)[C@H](CC(C)C)NC(=O)[C@@H](NC(=O)[C@H](Cc1ccccc1)NC(=O)[C@H](CCCCN)NC(=O)[C@@H](N)[C@@H](C)O)[C@@H](C)O)C(C)C)[C@@H](C)O)[C@@H](C)CC)C(N)=O` (stereo partly shown) [SEQ ID NO: 51, TKFTL SLDVP TNIMN LLFNC(-NES) AKAKN LRAQA AANAH LMAQI-NH2] (H-TKFTLSLDVPTNIMNLLFNC(Succinimide(1-Et,3-yl))AKAKNLRAQAAANAHLMAQI-NH2; N-terminus assumed) stands 0.68.
For the compound `CC[C@H](C)[C@H](NC(=O)[C@H](CCC(N)=O)NC(=O)[C@H](C)NC(=O)[C@H](CCSC)NC(=O)[C@H](CC(C)C)NC(=O)[C@H](Cc1c[nH]cn1)NC(=O)[C@H](C)NC(=O)[C@H](CC(N)=O)NC(=O)[C@H](C)NC(=O)[C@H](C)NC(=O)[C@H](C)NC(=O)[C@H](CCC(N)=O)NC(=O)[C@H](C)NC(=O)[C@H](CCCNC(=N)N)NC(=O)[C@H](CC(C)C)NC(=O)[C@H](CC(N)=O)NC(=O)[C@H](CCCCN)NC(=O)[C@H](C)NC(=O)[C@H](CCCCN)NC(=O)[C@H](C)NC(=O)[C@@H](NC(=O)[C@H](CSC1CC(=O)N(CC)C1=O)NC(=O)[C@H](Cc1ccccc1)NC(=O)[C@H](CC(C)C)NC(=O)[C@H](CC(C)C)NC(=O)[C@H](CC(N)=O)NC(=O)[C@H](CCSC)NC(=O)[C@@H](NC(=O)[C@H](CC(N)=O)NC(=O)[C@@H](NC(=O)[C@@H]1CCCN1C(=O)[C@@H](NC(=O)[C@H](CC(=O)O)NC(=O)[C@H](CC(C)C)NC(=O)[C@H](CO)NC(=O)[C@H](CC(C)C)NC(=O)[C@@H](NC(=O)[C@H](Cc1ccccc1)NC(=O)[C@H](CCCCN)NC(=O)[C@@H](N)[C@@H](C)O)[C@@H](C)O)C(C)C)[C@@H](C)O)[C@@H](C)CC)[C@@H](C)CC)C(N)=O` (stereo partly shown) [SEQ ID NO: 52, TKFTL SLDVP TNIMN LLFC(-NES)I AKAKN LRAQA AANAH LMAQI-NH2] (H-TKFTLSLDVPTNIMNLLFC(Succinimide(1-Et,3-yl))IAKAKNLRAQAAANAHLMAQI-NH2; N-terminus assumed), the “Log DR” value came out at 0.05.
Take `CC[C@H](C)[C@H](NC(=O)[C@H](CCC(N)=O)NC(=O)[C@H](C)NC(=O)[C@H](CCSC)NC(=O)[C@H](CC(C)C)NC(=O)[C@H](Cc1c[nH]cn1)NC(=O)[C@H](C)NC(=O)[C@H](CC(N)=O)NC(=O)[C@H](C)NC(=O)[C@H](C)NC(=O)[C@H](C)NC(=O)[C@H](CCC(N)=O)NC(=O)[C@H](C)NC(=O)[C@H](CCCNC(=N)N)NC(=O)[C@H](CC(C)C)NC(=O)[C@H](CC(N)=O)NC(=O)[C@H](CCCCN)NC(=O)[C@H](C)NC(=O)[C@H](CCCCN)NC(=O)[C@H](C)NC(=O)[C@@H](NC(=O)[C@H](CC(N)=O)NC(=O)[C@H](Cc1ccccc1)NC(=O)[C@H](CSC1CC(=O)N(CC)C1=O)NC(=O)[C@H](CC(C)C)NC(=O)[C@H](CC(N)=O)NC(=O)[C@H](CCSC)NC(=O)[C@@H](NC(=O)[C@H](CC(N)=O)NC(=O)[C@@H](NC(=O)[C@@H]1CCCN1C(=O)[C@@H](NC(=O)[C@H](CC(=O)O)NC(=O)[C@H](CC(C)C)NC(=O)[C@H](CO)NC(=O)[C@H](CC(C)C)NC(=O)[C@@H](NC(=O)[C@H](Cc1ccccc1)NC(=O)[C@H](CCCCN)NC(=O)[C@@H](N)[C@@H](C)O)[C@@H](C)O)C(C)C)[C@@H](C)O)[C@@H](C)CC)[C@@H](C)CC)C(N)=O` (stereo partly shown) [SEQ ID NO: 53, TKFTL SLDVP TNIMN LC(-NES)FNI AKAKN LRAQA AANAH LMAQI-NH2] (H-TKFTLSLDVPTNIMNLC(Succinimide(1-Et,3-yl))FNIAKAKNLRAQAAANAHLMAQI-NH2; N-terminus assumed): the “Log DR” value is on record as about 2.22.
